Read-outs that look alike come from different tables or passages of the source.
Legend:
HepG2 cells [1] = assay: Oxygen consumption, Seahorse XF24 analyzer; format: cell-based, human; conditions: Seahorse XF24; HepG2 cells; 25 mM glucose; 1, 4, 16, and 64μM
[2] = tested on: mitochondrial respiratory chain complex V; format: biochemical, rat
[3] = tested on: mitochondrial respiratory chain complex III; format: biochemical, rat; conditions: at 100μM
[4] = tested on: p53 (p53-bla HCT-116 cells); assay: p53 β-lactamase reporter gene assay; format: cell-based, human; conditions: 16 h incubation; mean±SD of three experiments
HepG2 cells [5] = tested on: HepG2 cells
[6] = target: T1, mitochondrial respiratory chain complex II (Rattus norvegicus, UniProt P21913+Q641Z9+Q6PCT8+Q920L2); assay: Respiratory chain complex II activity; format: biochemical; conditions: at 100μM; mean±SD of three experiments
T1 construct: Submitochondrial particles were prepared by subjecting the intact rat mitochondria, isolated as described above, to three successive freeze–thaw cycles; from tissue; host or cells: rat liver mitochondria (submitochondrial particles)
T1 sequence (Q920L2 35-656): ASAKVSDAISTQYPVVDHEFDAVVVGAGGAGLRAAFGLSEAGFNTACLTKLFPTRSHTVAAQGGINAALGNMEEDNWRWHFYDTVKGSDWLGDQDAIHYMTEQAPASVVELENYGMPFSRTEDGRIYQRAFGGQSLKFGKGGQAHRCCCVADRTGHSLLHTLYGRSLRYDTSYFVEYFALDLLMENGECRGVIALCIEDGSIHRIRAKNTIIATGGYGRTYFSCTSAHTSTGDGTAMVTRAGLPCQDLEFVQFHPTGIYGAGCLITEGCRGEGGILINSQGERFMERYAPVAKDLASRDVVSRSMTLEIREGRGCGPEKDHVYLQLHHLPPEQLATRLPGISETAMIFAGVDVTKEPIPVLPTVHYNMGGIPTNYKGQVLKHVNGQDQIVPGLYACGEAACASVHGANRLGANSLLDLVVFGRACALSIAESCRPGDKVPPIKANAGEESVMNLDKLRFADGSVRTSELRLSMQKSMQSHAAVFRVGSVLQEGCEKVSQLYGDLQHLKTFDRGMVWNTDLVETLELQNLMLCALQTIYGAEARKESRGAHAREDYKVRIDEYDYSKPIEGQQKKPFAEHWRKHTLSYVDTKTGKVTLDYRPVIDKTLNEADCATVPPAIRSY
T1 sequence (P21913 31-282): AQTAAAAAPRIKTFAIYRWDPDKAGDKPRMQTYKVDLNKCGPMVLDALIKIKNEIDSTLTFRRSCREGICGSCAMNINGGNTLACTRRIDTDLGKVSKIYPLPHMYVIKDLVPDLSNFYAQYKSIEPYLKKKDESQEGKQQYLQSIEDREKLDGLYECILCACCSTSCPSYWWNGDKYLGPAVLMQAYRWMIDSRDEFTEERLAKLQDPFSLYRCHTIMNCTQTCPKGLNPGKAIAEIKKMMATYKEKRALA
T1 sequence (Q641Z9 1-169): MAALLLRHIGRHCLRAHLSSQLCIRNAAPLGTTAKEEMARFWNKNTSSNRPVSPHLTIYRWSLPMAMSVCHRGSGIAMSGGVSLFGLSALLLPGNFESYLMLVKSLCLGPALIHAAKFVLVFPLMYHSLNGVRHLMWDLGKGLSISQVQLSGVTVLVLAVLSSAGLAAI
T1 sequence (Q6PCT8 57-159): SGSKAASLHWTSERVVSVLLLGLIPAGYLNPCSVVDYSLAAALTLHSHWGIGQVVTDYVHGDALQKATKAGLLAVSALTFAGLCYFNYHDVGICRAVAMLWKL

HepG2 cells [7] = assay: Intracellular ATP content (cell viability) assay; format: cell-based, human; conditions: for IC50: 40 h treatment, mean±SD of three experiments
[8] = tested on: HeLa cells expressing YFP-Parkin; assay: Parkin translocation assay; format: cell-based, human; conditions: HeLa cells stably expressing YFP-Parkin; treated for 2 h
[9] = tested on: Caenorhabditis elegans (Bristol N2); assay: C. elegans larval development and growth assay
HepG2 cells [10] = conditions: cited from earlier work
hNSC = assay: MMP assay in human neural stem cells (hNSC); format: cell-based; conditions: mean±SD of three experiments
HepG2 cells [11] = assay: ROS-Glo hydrogen peroxide (ROS) assay; format: cell-based, human; conditions: 2 h treatment; mean±SD of three experiments
[12] = tested on: Caenorhabditis elegans strain PE255; assay: In vivo C. elegans ATP status assay
[13] = tested on: Nrf2/ARE (ARE-bla HepG2 cells); assay: ARE β-lactamase reporter gene assay; format: cell-based, human
[14] = tested on: mitochondrial respiratory chain complex IV; format: biochemical, rat
[15] = tested on: isolated rat liver mitochondria; assay: Oxygen consumption, Clark-type oxygen electrode; format: biochemical; conditions: for I-ADP, % of control (O2 consumption rate): glutamate/malate driven state 3 respiration; for I-ADP, % of control (O2 consumption rate) / I-sub, % of control (O2 consumption rate) / II-ADP, % of control (O2 consumption rate) / II-sub, % of control (O2 consumption rate): isolated rat liver mitochondria; for I-sub, % of control (O2 consumption rate): glutamate/malate driven state 4 respiration; for II-ADP, % of control (O2 consumption rate): succinate-driven state 3 respiration; for II-sub, % of control (O2 consumption rate): succinate-driven state 4 respiration
rat primary hepatocytes = assay: MMP assay in rat primary hepatocytes
[16] = tested on: mitochondrial respiratory chain complex I; format: biochemical, rat; conditions: at 100μM

Cl.N=C1C=CC(=C(c2ccc(N)cc2)c2ccc(N)cc2)C=C1 [C.I. Basic red 9 monohydrochloride]
Activity in oxygen consumption (HepG2 cells [1]): Inhibitor | Complex V % inhibition (activity call) [2]: Inactive | Complex III % inhibition [3]: 21.6±6.41 at 100μM % | p53 (HCT-116) EC50 [4]: Inactive | HepG2 (efficacy) Glucose (MMP) (HepG2 cells [5]; 5 mM glucose, % of positive control, mean±SD of three experiments): −97.1±6.48% | HepG2 (efficacy) Galactose (MMP) (HepG2 cells [5]; 10 mM galactose, % of positive control, mean±SD of three experiments): −89.4±4.30% | MMP assays efficacy (%) HepG2 (HepG2 cells [5]; HepG2 cells, single number from one experiment): -94% | IC50 (HepG2 cells [5]; read-out: HepG2 IC50 Galactose (MMP), 10 mM galactose, no glucose, 1 h treatment, mean±SD of three experiments): 2.53 ± 0.46 µM | IC50 (HepG2 cells [5]; read-out: HepG2 IC50 Glucose (MMP), 5 mM glucose, 1 h treatment, fresh re-sourced stocks, mean±SD of three experiments): 1.66 ± 0.28 µM | IC50 (HepG2 cells [5]; read-out: MMP assays IC50 (µM) HepG2, HepG2 cells, single number from one experiment): 0.56 µM | Complex II % inhibition [6]: 12.2±3.48 at 100μM % | IC50 (HepG2 cells [7]; 5 mM glucose, read-out: ATP (HepG2, glucose) IC50): 9.72 ± 5.01 µM | ATP (HepG2, glucose) (efficacy) (HepG2 cells [7]; 5 mM glucose, % of positive control): −101±8.17% | IC50 (HepG2 cells [7]; 10 mM galactose, read-out: ATP (HepG2, galactose) IC50): 6.25 ± 2.01 µM | ATP (HepG2, galactose) (efficacy) (HepG2 cells [7]; 10 mM galactose, % of positive control): −98.4±12.9% | Parkin recruitment [8]: Inactive | EXT: mean difference in nematode size relative to plate controls ([9]; 0.5 µM): 0.03177 | EXT: mean difference in nematode size relative to plate controls ([9]; 1 µM): -0.03542 | EXT: mean difference in nematode size relative to plate controls ([9]; 5 µM): 0.06311 | EXT: mean difference in nematode size relative to plate controls ([9]; 10 µM): 0.04374 | EXT: mean difference in nematode size relative to plate controls ([9]; 25 µM): 0.1555 | EXT: mean difference in nematode size relative to plate controls ([9]; 50 µM): 0.3061 | EXT: mean difference in nematode size relative to plate controls ([9]; 75 µM): 1.032 | EXT: mean difference in nematode size relative to plate controls ([9]; 100 µM): 1.117 | LEC EXT: lowest effect concentration for extinction, a measure of nematode size ([9]; C. elegans larval growth, JT trend test, Bonferoni correction p<0.05): 50 µM | MMP assays efficacy (%) qHTS-HepG2 (HepG2 cells [10]): -95±11% | IC50 (HepG2 cells [10]; read-out: MMP assays IC50 (µM) qHTS-HepG2): 0.08 ± 0.02 µM | IC50 (hNSC; 1 h treatment, fresh re-sourced stocks, read-out: hNSC IC50 (MMP)): 2.55 ± 0.58 µM | hNSC (efficacy) (MMP) (hNSC; % of positive control): −70.3±7.17% | ROS (HepG2) EC50 (HepG2 cells [11]): Inactive | LUM: mean difference in luminescence (ATP content) relative to plate controls ([12]; 0.5 µM): 0.1703 | LUM: mean difference in luminescence (ATP content) relative to plate controls ([12]; 1 µM): 0.2203 | LUM: mean difference in luminescence (ATP content) relative to plate controls ([12]; 5 µM): 0.7285 | LUM: mean difference in luminescence (ATP content) relative to plate controls ([12]; 10 µM): 0.8296 | LUM: mean difference in luminescence (ATP content) relative to plate controls ([12]; 25 µM): 1.533 | LUM: mean difference in luminescence (ATP content) relative to plate controls ([12]; 50 µM): 2.0258 | LUM: mean difference in luminescence (ATP content) relative to plate controls ([12]; 75 µM): 2.358 | LUM: mean difference in luminescence (ATP content) relative to plate controls ([12]; 100 µM): 2.677 | LEC (lowest effect concentration), ATP assay ([12]; 24 h exposure): ≤ 10 µM | LEC LUM: lowest effect concentration for luminescence, a measure of nematode ATP content ([12]; C. elegans ATP, JT trend test, Bonferoni correction p<0.05): 5 µM | EC50 ([13]; 16 h incubation, mean±SD of three experiments, read-out: ARE (HepG2) EC50): 11.7 ± 7.37 µM | ARE (HepG2) (efficacy) ([13]; % of positive control): 107±42.3% | Complex IV % inhibition (activity call) [14]: Inactive | I-ADP, % of control (O2 consumption rate) ([15]; 0.8 µM): 94 (41.0) % of control | I-sub, % of control (O2 consumption rate) ([15]; 0.8 µM): 100 (13.1) % of control | II-ADP, % of control (O2 consumption rate) ([15]; 0.8 µM): 97 (65.8) % of control | II-sub, % of control (O2 consumption rate) ([15]; 0.8 µM): 96 (20.1) % of control | I-ADP, % of control (O2 consumption rate) ([15]; 4 µM): 82 (35.8) % of control | I-sub, % of control (O2 consumption rate) ([15]; 4 µM): 92 (12.1) % of control | II-ADP, % of control (O2 consumption rate) ([15]; 4 µM): 93 (63.1) % of control | II-sub, % of control (O2 consumption rate) ([15]; 4 µM): 101 (21.1) % of control | I-ADP, % of control (O2 consumption rate) ([15]; 20 µM): 64 (27.9) % of control | I-sub, % of control (O2 consumption rate) ([15]; 20 µM): 106 (13.9) % of control | II-ADP, % of control (O2 consumption rate) ([15]; 20 µM): 66 (44.4) % of control | II-sub, % of control (O2 consumption rate) ([15]; 20 µM): 110 (22.9) % of control | I-ADP, % of control (O2 consumption rate) ([15]; 100 µM): 17 (9.1) % of control | I-sub, % of control (O2 consumption rate) ([15]; 100 µM): 94 (12.7) % of control | II-ADP, % of control (O2 consumption rate) ([15]; 100 µM): 31 (21.0) % of control | II-sub, % of control (O2 consumption rate) ([15]; 100 µM): 96 (20.8) % of control | effect on mitochondrial respiration (in words) ([15]; Clark-type oxygen electrode, concentrations up to 100μM): moderate inhibitory effect on state 3 respiration driven by both glutamate/malate and succinate, but not on state 4 respiration | Potential Mechanism ([15]; mitochondrial respiration in isolated rat liver mitochondria, Clark type oxygen electrode, over tested concentrations): Inhibitor | Rat hepatocytes (efficacy) (MMP) (rat primary hepatocytes; % of positive control, mean±SD of three experiments): −90.3±2.77% | MMP assays efficacy (%) Rat Hepatocytes (rat primary hepatocytes; rat hepatocytes, mean ± SD of three experiments): -96±23% | IC50 (rat primary hepatocytes; read-out: MMP assays IC50 (µM) Rat Hepatocytes, rat hepatocytes, mean ± SD of three experiments): 4.11 ± 4.24 µM | IC50 (rat primary hepatocytes; read-out: Rat hepatocytes IC50 (MMP), 1 h treatment, fresh re-sourced stocks, mean±SD of three experiments): 6.3 ± 0.43 µM | Complex I % inhibition [16]: 14.1±2.98 at 100μM %

Reference: PMC6112376, “Comprehensive Analyses and Prioritization of Tox21 10K Chemicals Affecting Mitochondrial Function by in-Depth Mechanistic Studies” (Environmental Health Perspectives, 2018)
